Converted amounts (≈) assume the structure as drawn. Blank lines part the entries; values can stand above or below the compound they belong to.
Tests used:
[1] = Kinetic solubility of the compound in HCl at pH 2 after 20 hrs by shake flask method; type: physicochemical; details: read-out: Kinetic_solubility
[2] = Kinetic solubility of the compound in phosphate buffered saline at pH 6.5 after 20 hrs by shake flask method; type: physicochemical; details: read-out: Kinetic_solubility
[3] = Kinetic solubility of the compound in FaSSIF at pH 6.5 after 20 hrs by shake flask method; type: physicochemical; details: read-out: Kinetic_solubility
[4] = Drug metabolism in iv or po dosed Sprague-Dawley rat plasma assessed as oxidation of pyridine ring by LC-MS/MS method; type: ADME, organism-based; details: in vivo
[5] = Drug metabolism in iv or po dosed Sprague-Dawley rat plasma assessed as oxidation of phenyl ring by LC-MS/MS method; type: ADME, organism-based; details: in vivo
Mus musculus [6] = test: Dose normalized AUC (0 to 23 hrs) in NOD-scid IL-2Rgamma-null mouse model engrafted with Plasmodium falciparum 3D7 infected human erythrocytes at 25 mg/kg via oral gavage by LC-MS/MS method; type: ADME, organism-based; details: in vivo
[7] = Volume of distribution in Sprague-Dawley rat at 5 mg/kg, iv administered as 2 mins of infusion by LC-MS/MS method; type: ADME, organism-based; details: in vivo
[8] = Cmax in Sprague-Dawley rat at 20 mg/kg administered via oral gavage as bolus dose by LC-MS/MS method; type: ADME, organism-based; design: dose 20 mg/kg, route oral; details: in vivo
[9] = Cmax in Sprague-Dawley rat at 5 mg/kg, iv administered as 2 mins of infusion by LC-MS/MS method; type: ADME, organism-based; design: dose 5 mg/kg, route intravenous; details: in vivo
[10] = Cmax in BALB/c mouse at 10 mg/kg administered via oral gavage as bolus dose by LC-MS/MS method; type: ADME, organism-based; design: dose 10 mg/kg, route oral; details: in vivo
[11] = Tmax in Sprague-Dawley rat at 20 mg/kg administered via oral gavage as bolus dose by LC-MS/MS method; type: ADME, organism-based; details: in vivo
[12] = Tmax in BALB/c mouse at 10 mg/kg administered via oral gavage as bolus dose by LC-MS/MS method; type: ADME, organism-based; details: in vivo
Rattus norvegicus [13] = test: Dose normalized AUC (0 to infinity) in Sprague-Dawley rat at 20 mg/kg administered via oral gavage as bolus dose by LC-MS/MS method; type: ADME, organism-based; details: in vivo
Rattus norvegicus [14] = test: Dose normalized AUC (0 to infinity) in Sprague-Dawley rat at 5 mg/kg, iv administered as 2 mins of infusion by LC-MS/MS method; type: ADME, organism-based; details: in vivo
Mus musculus [15] = test: Dose normalized AUC (0 to infinity) in BALB/c mouse at 10 mg/kg administered via oral gavage as bolus dose by LC-MS/MS method; type: ADME, organism-based; details: in vivo
[16] = Oral bioavailability in Sprague-Dawley rat at 20 mg/kg administered via gavage as bolus dose by LC-MS/MS method; type: ADME, organism-based; details: in vivo
[17] = Cmax in NOD-scid IL-2Rgamma-null mouse model engrafted with Plasmodium falciparum 3D7 infected human erythrocytes at 5 mg/kg administered via oral gavage measured over 23 hrs post first dose by LC-MS/MS method; type: ADME, organism-based; design: dose 5 mg/kg, route oral; details: in vivo
[18] = Cmax in NOD-scid IL-2Rgamma-null mouse model engrafted with Plasmodium falciparum 3D7 infected human erythrocytes at 10 mg/kg administered via oral gavage measured over 23 hrs post first dose by LC-MS/MS method; type: ADME, organism-based; design: dose 10 mg/kg, route oral; details: in vivo
[19] = Cmax in NOD-scid IL-2Rgamma-null mouse model engrafted with Plasmodium falciparum 3D7 infected human erythrocytes at 25 mg/kg administered via oral gavage measured over 23 hrs post first dose by LC-MS/MS method; type: ADME, organism-based; design: dose 25 mg/kg, route oral; details: in vivo
[20] = Cmax in NOD-scid IL-2Rgamma-null mouse model engrafted with Plasmodium falciparum 3D7 infected human erythrocytes at 50 mg/kg administered via oral gavage measured over 23 hrs post first dose by LC-MS/MS method; type: ADME, organism-based; design: dose 50 mg/kg, route oral; details: in vivo
Mus musculus [21] = test: Dose normalized Cmax in NOD-scid IL-2Rgamma-null mouse model engrafted with Plasmodium falciparum 3D7 infected human erythrocytes at 5 mg/kg administered via oral gavage measured over 23 hrs post first dose by LC-MS/MS method; type: ADME, organism-based; details: in vivo
Mus musculus [22] = test: Dose normalized Cmax in NOD-scid IL-2Rgamma-null mouse model engrafted with Plasmodium falciparum 3D7 infected human erythrocytes at 10 mg/kg administered via oral gavage measured over 23 hrs post first dose by LC-MS/MS method; type: ADME, organism-based; details: in vivo
Mus musculus [23] = test: Dose normalized Cmax in NOD-scid IL-2Rgamma-null mouse model engrafted with Plasmodium falciparum 3D7 infected human erythrocytes at 25 mg/kg administered via oral gavage measured over 23 hrs post first dose by LC-MS/MS method; type: ADME, organism-based; details: in vivo
Mus musculus [24] = test: Dose normalized Cmax in NOD-scid IL-2Rgamma-null mouse model engrafted with Plasmodium falciparum 3D7 infected human erythrocytes at 50 mg/kg administered via oral gavage measured over 23 hrs post first dose by LC-MS/MS method; type: ADME, organism-based; details: in vivo
[25] = Tmax in NOD-scid IL-2Rgamma-null mouse model engrafted with Plasmodium falciparum 3D7 infected human erythrocytes at 5 mg/kg administered via oral gavage measured over 23 hrs post first dose by LC-MS/MS method; type: ADME, organism-based; details: in vivo
[26] = Tmax in NOD-scid IL-2Rgamma-null mouse model engrafted with Plasmodium falciparum 3D7 infected human erythrocytes at 10 mg/kg administered via oral gavage measured over 23 hrs post first dose by LC-MS/MS method; type: ADME, organism-based; details: in vivo
[27] = Tmax in NOD-scid IL-2Rgamma-null mouse model engrafted with Plasmodium falciparum 3D7 infected human erythrocytes at 25 mg/kg administered via oral gavage measured over 23 hrs post first dose by LC-MS/MS method; type: ADME, organism-based; details: in vivo
[28] = Tmax in NOD-scid IL-2Rgamma-null mouse model engrafted with Plasmodium falciparum 3D7 infected human erythrocytes at 50 mg/kg administered via oral gavage measured over 23 hrs post first dose by LC-MS/MS method; type: ADME, organism-based; details: in vivo
[29] = AUC (0 to 23 hrs) in NOD-scid IL-2Rgamma-null mouse model engrafted with Plasmodium falciparum 3D7 infected human erythrocytes at 5 mg/kg administered via oral gavage by LC-MS/MS method; type: ADME, organism-based; design: dose 5 mg/kg, time < 23 hr, route oral; details: in vivo
[30] = AUC (0 to 23 hrs) in NOD-scid IL-2Rgamma-null mouse model engrafted with Plasmodium falciparum 3D7 infected human erythrocytes at 10 mg/kg administered via oral gavage by LC-MS/MS method; type: ADME, organism-based; design: dose 10 mg/kg, time < 23 hr, route oral; details: in vivo
[31] = AUC (0 to 23 hrs) in NOD-scid IL-2Rgamma-null mouse model engrafted with Plasmodium falciparum 3D7 infected human erythrocytes at 25 mg/kg administered via oral gavage by LC-MS/MS method; type: ADME, organism-based; design: time < 23 hr, dose 25 mg/kg, route oral; details: in vivo
[32] = AUC (0 to 23 hrs) in NOD-scid IL-2Rgamma-null mouse model engrafted with Plasmodium falciparum 3D7 infected human erythrocytes at 50 mg/kg administered via oral gavage by LC-MS/MS method; type: ADME, organism-based; design: dose 50 mg/kg, time < 23 hr, route oral; details: in vivo
Mus musculus [33] = test: Dose normalized AUC (0 to 23 hrs) in NOD-scid IL-2Rgamma-null mouse model engrafted with Plasmodium falciparum 3D7 infected human erythrocytes at 5 mg/kg administered via oral gavage by LC-MS/MS method; type: ADME, organism-based; details: in vivo
Mus musculus [34] = test: Dose normalized AUC (0 to 23 hrs) in NOD-scid IL-2Rgamma-null mouse model engrafted with Plasmodium falciparum 3D7 infected human erythrocytes at 10 mg/kg administered via oral gavage by LC-MS/MS method; type: ADME, organism-based; details: in vivo
Mus musculus [35] = test: Dose normalized AUC (0 to 23 hrs) in NOD-scid IL-2Rgamma-null mouse model engrafted with Plasmodium falciparum 3D7 infected human erythrocytes at 50 mg/kg administered via oral gavage by LC-MS/MS method; type: ADME, organism-based; details: in vivo
[36] = Drug metabolism in iv or po dosed BALB/c mouse plasma assessed as oxidation of cyclopentane ring by LC-MS/MS method; type: ADME, organism-based; details: in vivo
[37] = Drug metabolism in iv or po dosed BALB/c mouse plasma assessed as oxidation and dehydrogenation of cyclopentane ring by LC-MS/MS method; type: ADME, organism-based; details: in vivo
[38] = Drug metabolism in iv or po dosed BALB/c mouse plasma assessed as dioxidation of cyclopentane ring by LC-MS/MS method; type: ADME, organism-based; details: in vivo

Structure (SMILES): Fc1ccc(Nc2cc3[nH]c(-c4ccc(F)c(F)c4)nc3cn2)nc1
solubility kinetic at 20 h [1]: 42 µM (≈ 14.3 µg/mL)
solubility kinetic at 20 h [2]: < 5 µM
solubility kinetic at 20 h [3]: 50 to 100 µM (≈ 17.1 to 34.1 µg/mL)
Drug metabolism [4]: Metabolite_Detected
Drug metabolism [5]: Metabolite_Notdetected

Structure (SMILES): FC(F)(F)c1ccc(Nc2cc3[nH]c(C4CCCC4)nc3cn2)nc1
solubility kinetic at 20 h [1]: 132 µM (≈ 45.8 µg/mL)
solubility kinetic at 20 h [2]: 145 µM (≈ 50.4 µg/mL)
solubility kinetic at 20 h [3]: 85 µM (≈ 29.5 µg/mL)
Drug metabolism [36]: Metabolite_Detected
Drug metabolism [37]: Metabolite_Detected
Drug metabolism [38]: Metabolite_Detected

Further lines, results first:

solubility kinetic at 20 h [1]: 7 µM (≈ 2.61 µg/mL)
solubility kinetic at 20 h [2]: < 5 µM
solubility kinetic at 20 h [3]: 50 to 100 µM (≈ 18.7 to 37.3 µg/mL)
Structure (SMILES): Fc1ccc(-c2nc3cnc(Nc4ccccn4)cc3[nH]2)cc1C(F)(F)F

AUC/dose (Mus musculus [6]): 1.632 µg·h/mL/mg/kg
solubility kinetic at 20 h [1]: 13 µM (≈ 5.09 µg/mL)
solubility kinetic at 20 h [2]: < 5 µM
solubility kinetic at 20 h [3]: 50 to 100 µM (≈ 19.6 to 39.1 µg/mL)
Drug metabolism [4]: Metabolite_Detected
Drug metabolism [5]: Metabolite_Notdetected
Vd [7]: 2.3 L/kg
Cmax [8]: 4.7 µM
Cmax [9]: 5.4 µM
Cmax [10]: 4 µM
Tmax [11]: 12 h
Tmax [12]: 1.7 h
AUC/dose (Rattus norvegicus [13]): 5923 µM·min
AUC/dose (Rattus norvegicus [14]): 1692 µM·min
AUC/dose (Mus musculus [15]): 2622 µM·min
bioavailability [16]: 88%
Cmax [17]: 573 ng/mL
Cmax [18]: 1580 ng/mL
Cmax [19]: 3090 ng/mL
Cmax [20]: 4860 ng/mL
Cmax/dose (Mus musculus [21]): 0.115 µg/mL/mg/kg
Cmax/dose (Mus musculus [22]): 0.158 µg/mL/mg/kg
Cmax/dose (Mus musculus [23]): 0.155 µg/mL/mg/kg
Cmax/dose (Mus musculus [24]): 0.097 µg/mL/mg/kg
Tmax [25]: 4 to 6 h
Tmax [26]: 4 h
Tmax [27]: 4 h
Tmax [28]: 2 to 4 h
AUC(0-t) at 23 h [29]: 6510 ng·h/mL
AUC(0-t) at 23 h [30]: 16900 ng·h/mL
AUC(0-t) at 23 h [31]: 32600 ng·h/mL
AUC(0-t) at 23 h [32]: 84100 ng·h/mL
AUC/dose (Mus musculus [33]): 1.302 µg·h/mL/mg/kg
AUC/dose (Mus musculus [34]): 1.686 µg·h/mL/mg/kg
AUC/dose (Mus musculus [35]): 1.681 µg·h/mL/mg/kg
Structure (SMILES): Fc1ccc(Nc2cc3[nH]c(-c4ccc(F)c(C(F)(F)F)c4)nc3cn2)nc1

solubility kinetic at 20 h [1]: < 5 µM
solubility kinetic at 20 h [2]: < 5 µM
solubility kinetic at 20 h [3]: 50 to 100 µM (≈ 21.2 to 42.3 µg/mL)
Drug metabolism [4]: Metabolite_Detected
Drug metabolism [5]: Metabolite_Notdetected
Structure (SMILES): FC(F)(F)c1ccc(Nc2cc3[nH]c(-c4cccc(C(F)(F)F)c4)nc3cn2)nc1

From ChEMBL document CHEMBL4184318, “Identification of Fast-Acting 2,6-Disubstituted Imidazopyridines That Are Efficacious in the in Vivo Humanized Plasmodium falciparum NODscidIL2Rγ null Mouse Model of Malaria” (J Med Chem, 2018)
